The text below walks through data of patent US20260297085A1, “1 H-PYRROLO[2,3-B]PYRIDIN-4-YL]-2-OXOPYRROLIDINE-3-CARBONITRILE DERIVATIVES AS TYROSINE KINASE 2 (TYK2) INHIBITORS FOR THE TREATMENT OF INFLAMMATORY DISEASES” (BIOGEN MA INC., priority 2023, published 2026).

Usually IC50 stands for the point on the concentration scale where inhibition reaches its midpoint.

Where a name gives a salt, the structure may show the parent alone.

Test [1] addresses T1, human TYK2 kinase domain (JH1) (Homo sapiens, UniProt P29597).
T1 construct: recombinantly generated catalytic kinase (also known as JH1) domain of human JAK1, JAK2, JAK3 and TYK2
T1 sequence (P29597 897-1176 limits assumed): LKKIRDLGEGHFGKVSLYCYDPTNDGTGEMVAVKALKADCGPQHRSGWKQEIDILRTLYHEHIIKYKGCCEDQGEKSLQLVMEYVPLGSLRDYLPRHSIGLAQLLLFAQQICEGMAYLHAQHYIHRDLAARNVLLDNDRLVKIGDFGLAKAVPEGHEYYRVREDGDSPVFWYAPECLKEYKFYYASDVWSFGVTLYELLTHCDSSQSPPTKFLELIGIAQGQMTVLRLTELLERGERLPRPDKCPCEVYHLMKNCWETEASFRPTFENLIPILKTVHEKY
Kind of test: JH1 biochemical assay for TYK2 (ADP-Glo kinase assay, recombinant JH1 catalytic domain, JAK3-974 peptide, 10 μM ATP). The method, then:
(§1) Compounds of the disclosure were assessed for their ability to inhibit TYK2, JAK1, JAK2, and JAK3 activity. The inhibitory properties of the compounds of the disclosure described herein can be evidenced by testing in any one of the following protocols.
(§2) The kinase activity of recombinantly generated catalytic kinase (also known as JH1) domain of human JAK1, JAK2, JAK3 and TYK2 were evaluated in a plate-based assay using the ADP-Glo™ Kinase Assay platform. Specifically, 4 nM of recombinant JAK1 kinase domain is used to phosphorylate 50 μM of a JAK3-342 (sequence ALVDGYFRLTT) peptide in the presence of 35 μM ATP. Catalytic activities of recombinant JAK2, JAK3 and TYK2 kinase domain (0.2, 0.3 and 2 nM, respectively) are evaluated by the phosphorylation status of the JAK3-974 (50 μM; sequence LPLDKDYYVVR) peptide with the addition of ATP (15, 4 and 10 μM, respectively). The reactions proceed for 100 minutes and the catalytic activity is quantified by first depleting the unused ATP, converting the hydrolyzed ADP into ATP to generate luminescence in a luciferase reaction; which is the basis of the ADP-Glo platform. Compounds are tested at either 10 μM or 1 μM top concentration, 11 points of 3-fold dilution. The data is normalized and the percent activity versus log concentration of compound is fitted with a 4-parameter logistic model to generate a curve and an IC50 value.
(ADP-Glo turns the ADP formed in a reaction into a luminescent signal.)

Test [2] deals with T2, human JAK1 kinase domain (JH1) (Homo sapiens, UniProt P23458).
T2 construct: recombinantly generated catalytic kinase (also known as JH1) domain of human JAK1, JAK2, JAK3 and TYK2
T2 sequence (P23458 875-1153 limits assumed): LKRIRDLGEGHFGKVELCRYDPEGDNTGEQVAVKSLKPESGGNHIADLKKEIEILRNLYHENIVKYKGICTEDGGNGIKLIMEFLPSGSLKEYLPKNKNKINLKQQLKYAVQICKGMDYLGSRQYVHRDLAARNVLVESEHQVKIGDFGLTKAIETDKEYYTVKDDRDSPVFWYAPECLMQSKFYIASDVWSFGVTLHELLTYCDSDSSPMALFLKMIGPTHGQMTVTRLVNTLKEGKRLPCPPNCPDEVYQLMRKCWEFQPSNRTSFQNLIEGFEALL
Kind of test: JH1 biochemical assay for JAK1 (ADP-Glo kinase assay, recombinant JH1 catalytic domain, JAK3-342 peptide, 35 μM ATP). The method, then:
as §1, §2

Test [3] has as its target T3, human JAK2 kinase domain (JH1) (Homo sapiens, UniProt O60674).
T3 construct: recombinantly generated catalytic kinase (also known as JH1) domain of human JAK1, JAK2, JAK3 and TYK2
The test is described as follows: JH1 biochemical assay for JAK2 (ADP-Glo kinase assay, recombinant JH1 catalytic domain, JAK3-974 peptide, 15 μM ATP). The method, then:
as §1, §2

Test [4] addresses T4, human JAK3 kinase domain (JH1) (Homo sapiens, UniProt P52333).
T4 construct: recombinantly generated catalytic kinase (also known as JH1) domain of human JAK1, JAK2, JAK3 and TYK2
Kind of test: JH1 biochemical assay for JAK3 (ADP-Glo kinase assay, recombinant JH1 catalytic domain, JAK3-974 peptide, 4 μM ATP). The method, then:
as §1, §2

T4 sequence (P52333 822-1111 limits assumed): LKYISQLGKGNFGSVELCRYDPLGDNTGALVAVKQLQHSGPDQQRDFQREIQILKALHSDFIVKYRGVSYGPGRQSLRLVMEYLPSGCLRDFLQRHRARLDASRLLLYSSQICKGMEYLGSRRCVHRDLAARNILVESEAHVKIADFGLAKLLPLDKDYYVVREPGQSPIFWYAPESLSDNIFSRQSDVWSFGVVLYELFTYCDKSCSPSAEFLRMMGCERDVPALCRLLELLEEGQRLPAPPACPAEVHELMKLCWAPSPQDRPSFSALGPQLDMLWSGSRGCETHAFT
T3 sequence (O60674 849-1124 limits assumed): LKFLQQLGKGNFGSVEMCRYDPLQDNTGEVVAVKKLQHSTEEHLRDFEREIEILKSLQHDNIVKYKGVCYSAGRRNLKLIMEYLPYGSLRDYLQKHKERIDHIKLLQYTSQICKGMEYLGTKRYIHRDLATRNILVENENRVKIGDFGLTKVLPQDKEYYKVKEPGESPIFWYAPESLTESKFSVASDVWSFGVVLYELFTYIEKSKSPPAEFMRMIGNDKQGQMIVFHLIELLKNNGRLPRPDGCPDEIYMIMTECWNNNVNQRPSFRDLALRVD

Regarding `Cn1cc(-c2cc3c(N4CC[C@](C#N)(C5CC5)C4=O)ccnc3[nH]2)cn1` [Example 2, (R)-3-cyclopropyl-1-(2-(1-methyl-1H-pyrazol-4-yl)-1H-pyrrolo[2,3-b]pyridin-4-yl)-2-oxopyrrolidine-3-carbonitrile], the IC50 in test [1] (JH1 kinase domain, ADP-Glo) lay in the range of 0.05 to 0.1 µM; in test [2] (JH1 kinase domain, ADP-Glo), 0.1 to 1 µM; in test [3] (JH1 kinase domain, ADP-Glo) it was 0.1 to 1 µM; in test [4] (JH1 kinase domain, ADP-Glo), 1 to 5 µM.
Turning to `C[C@@H]1CN(c2ccnn3cc(-c4nc5ccccn5n4)cc23)C(=O)[C@]1(C#N)C1CC1` [Example 108, (3R,4S)-1-(6-([1,2,4]triazolo[1,5-a]pyridin-2-yl)pyrrolo[1,2-b]pyridazin-4-yl)-3-cyclopropyl-4-methyl-2-oxopyrrolidine-3-carbonitrile trifluoroacetate], the IC50 in test [1] (JH1 kinase domain, ADP-Glo) was 0.05 to 0.1 µM; in test [2] (JH1 kinase domain, ADP-Glo), 1 to 5 µM; in test [3] (JH1 kinase domain, ADP-Glo) it was above 10 µM; in test [4] (JH1 kinase domain, ADP-Glo), 1 to 5 µM.
For `Cc1nn(C)c(C)c1-c1cn2nccc2c(N2C[C@@H](C)[C@@](C#N)(C3CC3)C2=O)n1` [Example 200, (3R,4S)-3-cyclopropyl-4-methyl-2-oxo-1-(6-(1,3,5-trimethyl-1H-pyrazol-4-yl)pyrazolo[1,5-a]pyrazin-4-yl)pyrrolidine-3-carbonitrile], the IC50 in test [1] (JH1 kinase domain, ADP-Glo) lay in the range of 0.02 to 0.05 µM; in test [2] (JH1 kinase domain, ADP-Glo) it was 0.1 to 1 µM; in test [3] (JH1 kinase domain, ADP-Glo), 1 to 5 µM; in test [4] (JH1 kinase domain, ADP-Glo), 0.1 to 1 µM.
Consider `C[C@@H]1CN(c2ccnn3cc(-c4ncc(C#N)s4)cc23)C(=O)[C@]1(C#N)C1CC1` [Example 117, 2-(4-((3R,4S)-3-cyano-3-cyclopropyl-4-methyl-2-oxopyrrolidin-1-yl)pyrrolo[1,2-b]pyridazin-6-yl)thiazole-5-carbonitrile trifluoroacetate], for which the IC50 was 0.02 to 0.05 µM in test [1] (JH1 kinase domain, ADP-Glo); 1 to 5 µM in test [2] (JH1 kinase domain, ADP-Glo); 1 to 5 µM in test [3] (JH1 kinase domain, ADP-Glo); 1 to 5 µM in test [4] (JH1 kinase domain, ADP-Glo).
Regarding `C[C@@H]1CN(c2ccnn3cc(-c4ccc(CO)cn4)cc23)C(=O)[C@]1(C#N)C1CC1` [Example 150, (3R,4S)-3-cyclopropyl-1-(6-(5-(hydroxymethyl)pyridin-2-yl)pyrrolo[1,2-b]pyridazin-4-yl)-4-methyl-2-oxopyrrolidine-3-carbonitrile trifluoroacetate], the IC50 in test [1] (JH1 kinase domain, ADP-Glo) lay within 0.005 to 0.02 µM; in test [2] (JH1 kinase domain, ADP-Glo) it was 0.1 to 1 µM; in test [3] (JH1 kinase domain, ADP-Glo) it was 0.1 to 1 µM; in test [4] (JH1 kinase domain, ADP-Glo) it was 0.1 to 1 µM.
For the compound `CC[C@H]1CN(c2ccnn3cc(-c4cnn(C)c4)cc23)C(=O)[C@@]1(C#N)C1CC1` [Example 25, (3S,4R)-3-cyclopropyl-4-ethyl-1-(6-(1-methyl-1H-pyrazol-4-yl)pyrrolo[1,2-b]pyridazin-4-yl)-2-oxopyrrolidine-3-carbonitrile], the concentration for half-maximal inhibition (IC50) in test [1] (JH1 kinase domain, ADP-Glo) is above 0.1 µM; in test [2] (JH1 kinase domain, ADP-Glo), above 10 µM; in test [3] (JH1 kinase domain, ADP-Glo), above 10 µM; in test [4] (JH1 kinase domain, ADP-Glo), above 10 µM.
For `C[C@@H]1CN(c2ccnn3cc(-c4cncc(C(F)(F)F)c4)cc23)C(=O)[C@]1(C#N)C1CC1` [Example 70, (3R,4S)-3-cyclopropyl-4-methyl-2-oxo-1-(6-(5-(trifluoromethyl)pyridin-3-yl)pyrrolo[1,2-b]pyridazin-4-yl)pyrrolidine-3-carbonitrile], the IC50 in test [1] (JH1 kinase domain, ADP-Glo) lay in the range of 0.05 to 0.1 µM; in test [2] (JH1 kinase domain, ADP-Glo), 1 to 5 µM; in test [3] (JH1 kinase domain, ADP-Glo), 1 to 5 µM; in test [4] (JH1 kinase domain, ADP-Glo), 1 to 5 µM.
`Cc1csc(-c2cc3c(N4C[C@@H](C)[C@@](C#N)(C5CC5)C4=O)ccnn3c2)n1` [Example 113, (3R,4S)-3-cyclopropyl-4-methyl-1-(6-(4-methylthiazol-2-yl)pyrrolo[1,2-b]pyridazin-4-yl)-2-oxopyrrolidine-3-carbonitrile trifluoroacetate]: the IC50 in test [1] (JH1 kinase domain, ADP-Glo) fell in the range of 0.02 to 0.05 µM; in test [2] (JH1 kinase domain, ADP-Glo), 0.1 to 1 µM; in test [3] (JH1 kinase domain, ADP-Glo), 1 to 5 µM; in test [4] (JH1 kinase domain, ADP-Glo), 0.1 to 1 µM.
As to `C[C@@H]1CN(c2ccnn3cc(-c4ncn(C)n4)cc23)C(=O)[C@]1(C#N)C1CC1` [Example 115, (3R,4S)-3-cyclopropyl-4-methyl-1-(6-(1-methyl-1H-1,2,4-triazol-3-yl)pyrrolo[1,2-b]pyridazin-4-yl)-2-oxopyrrolidine-3-carbonitrile trifluoroacetate], the IC50 is above 0.1 µM in test [1] (JH1 kinase domain, ADP-Glo); above 10 µM in test [2] (JH1 kinase domain, ADP-Glo); above 10 µM in test [3] (JH1 kinase domain, ADP-Glo); 5 to 10 µM in test [4] (JH1 kinase domain, ADP-Glo).
Consider `COc1cc(-c2cn3nccc3c(N3C[C@@H](C)[C@@](C#N)(C4CC4)C3=O)n2)ccn1` [Example 231, (3R,4S)-3-cyclopropyl-1-(6-(2-methoxy-pyridin-4-yl)pyrazolo[1,5-a]pyrazin-4-yl)-4-methyl-2-oxopyrrolidine-3-carbonitrile trifluoroacetate], for which the IC50 in test [1] (TYK2 JH1, ADP-Glo) was above 0.1 µM; in test [2] (JAK1 JH1, ADP-Glo) it was above 10 µM; in test [3] (JAK2 JH1, ADP-Glo) it was above 10 µM; in test [4] (JAK3 JH1, ADP-Glo), above 10 µM.
Regarding `COc1cc(-c2cc3c(N4CC[C@](C#N)(C5CC5)C4=O)ccnn3c2)ccn1` [Example 13, (R)-3-cyclopropyl-1-(6-(2-methoxypyridin-4-yl)pyrrolo[1,2-b]pyridazin-4-yl)-2-oxopyrrolidine-3-carbonitrile], the IC50 in test [1] (JH1 kinase domain, ADP-Glo) is above 0.1 µM; in test [2] (JH1 kinase domain, ADP-Glo) it was 5 to 10 µM; in test [3] (JH1 kinase domain, ADP-Glo), above 10 µM; in test [4] (JH1 kinase domain, ADP-Glo), above 10 µM.
For the compound `C[C@@H]1CN(c2ccnn3cc(-c4cnn(C)n4)cc23)C(=O)[C@]1(C#N)C1CC1` [Example 99, (3R,4S)-3-cyclopropyl-4-methyl-1-(6-(2-methyl-2H-1,2,3-triazol-4-yl)pyrrolo[1,2-b]pyridazin-4-yl)-2-oxopyrrolidine-3-carbonitrile trifluoroacetate], the IC50 in test [1] (JH1 kinase domain, ADP-Glo) was in the range of 0.02 to 0.05 µM; in test [2] (JH1 kinase domain, ADP-Glo), 0.1 to 1 µM; in test [3] (JH1 kinase domain, ADP-Glo) it was 1 to 5 µM; in test [4] (JH1 kinase domain, ADP-Glo), 0.1 to 1 µM.
For the compound `C[C@@H]1CN(c2ccc3ncc(-c4cnn(C)c4)cn23)C(=O)[C@]1(C#N)C1CC1` [Example 283, (3R,4S)-3-cyclopropyl-4-methyl-1-(3-(1-methyl-1H-pyrazol-4-yl)pyrrolo[1,2-a]pyrimidin-6-yl)-2-oxopyrrolidine-3-carbonitrile], the IC50 in test [1] (TYK2 JH1, ADP-Glo) was above 0.1 µM; in test [2] (JAK1 JH1, ADP-Glo) it was above 10 µM; in test [3] (JAK2 JH1, ADP-Glo), above 10 µM; in test [4] (JAK3 JH1, ADP-Glo), above 10 µM.
On to `C[C@@H]1CN(c2ccnn3cc(-c4cnc5n4CCCC5)cc23)C(=O)[C@]1(C#N)C1CC1` [Example 100, (3R,4S)-3-cyclopropyl-4-methyl-2-oxo-1-(6-(5,6,7,8-tetrahydroimidazo[1,2-a]pyridin-3-yl)pyrrolo[1,2-b]pyridazin-4-yl)pyrrolidine-3-carbonitrile trifluoroacetate], for which the IC50 was in the range of 0.05 to 0.1 µM in test [1] (JH1 kinase domain, ADP-Glo); 1 to 5 µM in test [2] (JH1 kinase domain, ADP-Glo); 1 to 5 µM in test [3] (JH1 kinase domain, ADP-Glo); 1 to 5 µM in test [4] (JH1 kinase domain, ADP-Glo).
Consider `C[C@@H]1CN(c2nc(-c3ncc[nH]3)cn3nccc23)C(=O)[C@]1(C#N)C1CC1` [Example 247, (3R,4S)-1-(6-(1H-imidazol-2-yl)pyrazolo[1,5-a]pyrazin-4-yl)-3-cyclopropyl-4-methyl-2-oxopyrrolidine-3-carbonitrile trifluoroacetate], for which the IC50 was above 0.1 µM in test [1] (TYK2 JH1, ADP-Glo); above 10 µM in test [2] (JAK1 JH1, ADP-Glo); above 10 µM in test [3] (JAK2 JH1, ADP-Glo); above 10 µM in test [4] (JAK3 JH1, ADP-Glo).
As for `Cn1cc(-c2cc3c(N4CC[C@](C#N)(C5CC5)C4=O)ccnn3c2)cn1` [Example 14, (R)-3-cyclopropyl-1-(6-(1-methyl-1H-pyrazol-4-yl)pyrrolo[1,2-b]pyridazin-4-yl)-2-oxopyrrolidine-3-carbonitrile], the IC50 was above 0.1 µM in test [1] (JH1 kinase domain, ADP-Glo); above 10 µM in test [2] (JH1 kinase domain, ADP-Glo); 5 to 10 µM in test [3] (JH1 kinase domain, ADP-Glo); above 10 µM in test [4] (JH1 kinase domain, ADP-Glo).
